This passage reports IC50 results from US20240239775A1, “FXR REGULATOR, PREPARATION METHOD THEREFOR, PHARMACEUTICAL COMPOSITION THEREOF AND USE THEREOF” (QINGDAO RUIJI MEDICAL TECHNOLOGY CO., LTD., priority 2021, published 2024).

For one test, the target named is T1, FXR (Homo sapiens, UniProt Q96RI1).
T1 construct: 5 μL of 20 nM FXR-LBD Complete Coregulator buffer G; purchased ThermoFisher PV4833
T1 sequence (Q96RI1 262-486 limits assumed): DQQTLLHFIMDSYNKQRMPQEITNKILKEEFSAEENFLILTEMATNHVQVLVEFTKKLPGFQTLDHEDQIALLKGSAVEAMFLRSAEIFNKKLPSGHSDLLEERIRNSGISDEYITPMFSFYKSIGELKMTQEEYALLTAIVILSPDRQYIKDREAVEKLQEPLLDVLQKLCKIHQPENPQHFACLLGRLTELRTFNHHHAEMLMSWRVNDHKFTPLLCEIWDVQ
The test is described as follows: FXR antagonist screening by TR-FRET (LanthaScreen TR-FRET FXR co-activation assay kit). Format: biochemical. To be noted: Table 1.1, FXR antagonistic activity; TR-FRET with CDCA; geometric means of at least two independent runs. A digest of the protocol:
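FXR-LBD (20 nM working solution) mixed with compound, CDCA (200 μM working solution) as agonist, Fluorescein-SRC2-2 and Tb-anti-GST antibody in Coregulator buffer G; 10 h at room temperature. Coactivator recruitment read by TR-FRET, triplicate wells.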
Broadly, the IC50 is the point on the concentration scale where inhibition reaches its midpoint. Low values mean greater potency in that assay, high ones weaker potency in that assay. In the case of `CCOC(=O)c1oc2ccc(S(=O)(=O)N(CCc3ccccc3)Cc3ccc(C#N)cc3F)cc2c1C` [Example M4-54, ethyl 3-methyl-5-(N-(2-fluoro-4-cyanobenzyl)-N-phenethylsulfamoyl)benzofuran-2-carboxylate], the IC50 was 50 to 100 µM.

`CCOC(=O)c1oc2ccc(S(=O)(=O)N(CCc3ccccc3)Cc3ccc(-c4ccccc4)cc3)cc2c1C` [Example M4-82] showed an IC50 of 50 to 100 µM.

`CCOC(=O)c1oc2ccc(S(=O)(=O)N(CCc3ccccc3)Cc3ccc(N4CCN(C(=O)OC(C)(C)C)CC4)cc3)cc2c1C` [Example M8-81, ethyl 3-methyl-5-(N-(4-(4-(tert-butoxycarbonyl)piperazin-1-yl)benzyl)-N-phenethylsulfamoyl)benzofuran-2-carboxylate] came in with an IC50 of 50 to 100 µM.

`CCOC(=O)c1oc2ccc(S(=O)(=O)N(CCc3ccccc3)Cc3cccc(Oc4ccccc4)c3)cc2c1C` [Example M4-27]: the IC50 fell in the range of 50 to 100 µM.

Compound `CCOC(=O)c1oc2ccc(S(=O)(=O)N(CCc3ccccc3)Cc3ccc(Oc4ccccc4)cc3)cc2c1C` [Example M8-86, ethyl 3-methyl-5-(N-phenethyl-N-(4-phenoxybenzyl)sulfamoyl)benzofuran-2-carboxylate] returned an IC50 of 50 to 100 µM.

`CCOC(=O)c1oc2ccc(S(=O)(=O)N(CCc3ccccc3)Cc3ccc(-c4ccccc4C(=O)OC(C)(C)C)cc3)cc2c1C` [Example M4-84, ethyl 3-methyl-5-(N-((2′-(tert-butoxycarbonyl)-[1,1′-biphenyl]-4-yl)methyl)-N-phenethylsulfamoyl)benzofuran-2-carboxylate]: the IC50 lay in the range of 50 to 100 µM.

As to `CCOC(=O)c1oc2ccc(S(=O)(=O)N(CCc3ccccc3)Cc3c(F)cc(Cl)cc3F)cc2c1C` [Example M4-62, ethyl 3-methyl-5-(N-(2,6-difluoro-4-chlorobenzyl)-N-phenethylsulfamoyl)benzofuran-2-carboxylate], the IC50 lay within 50 to 100 µM.

With `CCOC(=O)c1oc2ccc(S(=O)(=O)N(CCc3ccccc3)Cc3ccc(Br)cc3)cc2c1C` [Example M4-30, ethyl 3-methyl-5-(N-(4-bromobenzyl)-N-phenethylsulfamoyl)benzofuran-2-carboxylate], the IC50 is 50 to 100 µM.

`Cc1c(C(=O)O)oc2ccc(S(=O)(=O)N(CCc3ccccc3)Cc3ccc(N4CCN(C(=O)OC(C)(C)C)CC4)cc3)cc12` [Example F27-S81, 3-methyl-5-(N-(4-(4-(tert-butoxycarbonyl)piperazin-1-yl)benzyl)-N-phenethylsulfamoyl)benzofuran-2-carboxylic acid] yielded an IC50 of 10 to 50 µM.

For `CCOC(=O)c1oc2ccc(S(=O)(=O)N(CCc3ccccc3)Cc3cc(F)ccc3C)cc2c1C` [Example M4-61, ethyl 3-methyl-5-(N-(2-methyl-5-fluorobenzyl)-N-phenethylsulfamoyl)benzofuran-2-carboxylate], the IC50 is 50 to 100 µM.

The same test, now with this note: Table 1.2, FXR antagonistic activity; TR-FRET with CDCA; geometric means of at least two independent runs.
Turning to `CCOC(=O)c1oc2ccc(S(=O)(=O)N(CCc3ccccc3)c3ccccc3N3CCN(C(=O)c4ccc(C(C)=O)cc4)CC3)cc2c1C` [Example M10-115, Ethyl 5-(N-(2-(4-(4-acetylbenzoyl)piperazin-1-yl)phenyl)-N-phenethylsulfamoyl)-3-methylbenzofuran-2-carboxylate], the IC50 was in the range of 50 to 100 µM.

As for `CCOC(=O)c1oc2ccc(S(=O)(=O)N(CCc3ccccc3)c3ccccc3N3CCN(C(=O)c4sccc4C)CC3)cc2c1C` [Example M10-141, Ethyl 5-(N-(2-(4-(3-methylthiophene-2-formyl)piperazin-1-yl)phenyl)-N-phenethylsulfamoyl)3-methylbenzofuran-2-carboxylate], the IC50 is 50 to 100 µM.

On to `Cc1c(C(=O)O)oc2ccc(S(=O)(=O)N(CCc3ccccc3)c3ccccc3N3CCN(C(=O)c4sccc4Br)CC3)cc12` [Example F27-S125, 5-(N-(2-(4-(3-bromothiophene-2-carbonyl)piperazin-1-yl)phenyl)-N-phenethylsulfamoyl)-3-methyl benzofuran-2-carboxylic acid], for which the IC50 fell in the range of 0.1 to 10 µM.

`CC(=O)Nc1ccc(C(=O)N2CCN(c3ccccc3N(CCc3ccccc3)S(=O)(=O)c3ccc4oc(C(=O)O)c(C)c4c3)CC2)cc1` [Example F27-S109, 5-(N-(2-(4-(4-acetamidobenzoyl)piperazin-1-yl)phenyl)-N-phenethylsulfamoyl)-3-methylbenzofuran-2-carboxylic acid] yielded an IC50 of 0.1 to 10 µM.

For `CCOC(=O)c1oc2ccc(S(=O)(=O)N(CCc3ccccc3)c3ccccc3N3CCN(C(=O)c4c(C)cc(C)cc4C)CC3)cc2c1C` [Example M10-135, Ethyl 5-(N-(2-(4-(2,4,6-trimethylbenzoyl)piperazin-1-yl)phenyl)-N-phenethylsulfamoyl)3-methylbenzofuran-2-carboxylate], the IC50 was 50 to 100 µM.

On to `CCOC(=O)c1oc2ccc(S(=O)(=O)N(CCc3ccccc3)c3ccccc3N3CCC4(CCN(C(=O)c5sccc5Br)C4)CC3)cc2c1C` [Example M10-148], for which the IC50 was in the range of 50 to 100 µM.

`CCOC(=O)c1oc2ccc(S(=O)(=O)N(CCc3ccccc3)c3ccccc3N3C4CCC3CN(C(=O)c3sccc3Br)C4)cc2c1C` [Example M10-155, Ethyl 5-(N-(2-(3-(3-bromothiophene-2-formyl)-3,8-diazepine[3.2.1]cyclooctan-8-yl)phenyl)-N-phenethylsulfamoyl)3-methylbenzofuran-2-carboxylate] yielded an IC50 of 50 to 100 µM.

In turn, `CCOC(=O)c1oc2ccc(S(=O)(=O)N(CCc3ccccc3)c3ccccc3N3CCN(C(=O)c4sccc4Cl)CC3)cc2c1C` [Example M10-126, Ethyl 5-(N-(2-(4-(3-chlorothiophene-2-carbonyl)piperazin-1-yl)phenyl)-N-phenethylsulfamoyl)-3-methylbenzofuran-2-carboxylate] displayed an IC50 of 50 to 100 µM.

`Cc1c(C(=O)O)oc2ccc(S(=O)(=O)N(CCc3ccccc3)c3ccccc3N3CCN(C(=O)c4ccc(C#Cc5ccccc5)cc4)CC3)cc12` [Example F27-S138, 5-(N-(2-(4-(4-(phenylethynyl)benzoyl)piperazin-1-yl)phenyl)-N-phenethylsulfamoyl)3-methylbenzofuran-2-carboxylic acid] came in with an IC50 of 0.1 to 10 µM.

`CCOC(=O)c1oc2ccc(S(=O)(=O)N(CCc3ccccc3)c3ccccc3N3CCN(C(=O)c4cc(C)ccc4C)CC3)cc2c1C` [Example M10-137, Ethyl 5-(N-(2-(4-(2,5-Dimethylbenzoyl)piperazin-1-yl)phenyl)-N-phenethylsulfamoyl)3-methylbenzofuran-2-carboxylate] came in with an IC50 of 50 to 100 µM.

Regarding `Cc1c(C(=O)O)sc2ccc(S(=O)(=O)N(C)c3ccccc3N3CCN(C(=O)c4sccc4Br)CC3)cc12` [Example F27-S182, 5-(N-(2-(4-(3-bromothiophene-2-carbonyl)piperazin-1-yl)phenyl)-N-methylsulfamoyl)-3-methylbenzothiophene-2-carboxylic acid], the IC50 fell in the range of 0.1 to 10 µM.

The compound `CCOC(=O)c1oc2ccc(S(=O)(=O)N(CCc3ccccc3)c3ccccc3N3CCC4(CC3)CN(C(=O)c3sccc3Br)C4)cc2c1C` [Example M10-150] gave an IC50 of 50 to 100 µM.

Compound `CCOC(=O)c1oc2ccc(S(=O)(=O)N(CCc3ccccc3)c3ccccc3N3CCCN(C(=O)c4sccc4Br)CC3)cc2c1C` [Example M10-154, Ethyl 5-(N-(2-(4-(3-bromothiophene-2-formyl)-1,4-diazepin-1-yl)phenyl)-N-phenethylsulfamoyl)-3-methylbenzofuran-2-carboxylate] displayed an IC50 of 50 to 100 µM.
